From the NIST ThermoML archive (doi:10.1016/j.fluid.2005.11.013)
Numbers after ± are expanded uncertainties.

Assay: wn = mass fraction of the nth substance listed
Conditions: Liquid; for mass density: Other PVT measurement; for viscosity: 17000 kPa, high pressure falling cylinger viscometer

CC(=O)OC[C@H]1O[C@@H](OC(C)=O)[C@H](OC(C)=O)[C@@H](OC(C)=O)[C@H]1OC(C)=O [β-D-galactose pentaacetate] + O=C=O
mass density [kg/m3]
Conditions	w1 = 0.206	w1 = 0.259
308 K, 10600 kPa	930 ± 40	990 ± 40
308 K, 11000 kPa	–	1000 ± 40
308 K, 11400 kPa	940 ± 40	–
308 K, 11700 kPa	–	1010 ± 40
308 K, 12300 kPa	950 ± 40	–
308 K, 12400 kPa	–	1020 ± 40
308 K, 13300 kPa	–	1030 ± 40
308 K, 13700 kPa	960 ± 40	–
308 K, 14900 kPa	–	1040 ± 40
308 K, 15000 kPa	970 ± 40	–
308 K, 15500 kPa	970 ± 40	–
308 K, 17100 kPa	–	1060 ± 40
313 K, 11900 kPa	–	970 ± 40
313 K, 12100 kPa	940 ± 40	–
313 K, 12600 kPa	–	980 ± 40
313 K, 12700 kPa	940 ± 40	–
313 K, 13300 kPa	–	980 ± 40
313 K, 13600 kPa	950 ± 40	–
313 K, 14200 kPa	–	990 ± 40
313 K, 15100 kPa	960 ± 40	1000 ± 40
313 K, 15800 kPa	–	1010 ± 40
313 K, 16200 kPa	970 ± 40	–
313 K, 17300 kPa	–	1020 ± 40
313 K, 17500 kPa	980 ± 40	–
313 K, 18500 kPa	980 ± 40	–
313 K, 19400 kPa	980 ± 40	–
313 K, 19800 kPa	–	1040 ± 40
318 K, 14400 kPa	930 ± 40	–
318 K, 15100 kPa	940 ± 40	–
318 K, 15900 kPa	940 ± 40	–
318 K, 16700 kPa	950 ± 40	–
318 K, 17900 kPa	960 ± 40	–
318 K, 20300 kPa	970 ± 40	–
323 K, 15500 kPa	930 ± 40	–
323 K, 16000 kPa	940 ± 40	–
323 K, 16600 kPa	940 ± 40	–
323 K, 17700 kPa	950 ± 40	–
323 K, 18900 kPa	960 ± 40	–

318 K
Conditions	viscosity [mPa·s]
w1 = 0.18	0.095 ± 0.004
w1 = 0.25	0.103 ± 0.004
